Where two headings read alike, the source gives them in different places.

The target of assay [1] is recombinant GSK3β kinase (Homo sapiens (Human), UniProt P49841). The assay can be described thus: GSK3β kinase assay (Ser/Thr 09 peptide Z-lyte, FRET).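 Also: FRET read-out as coumarin over fluorescein emission ratio, compounds incubated one hour at room temperature, IC50 from dose-response curve fit.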 The format is biochemical.
The subject of assay [2] is Tau phosphorylation at Ser396 (pSer396) in SH-SY5Y cells. The assay can be described thus: Tau phosphorylation at Ser396 (pSer396) cell assay, ELISA/western blot. The note with it: Homo sapiens; SH-SY5Y cells, overnight (16-18 h); read-out: pSer396 Tau EC50. Type of assay: cell-based, human.
Assay [3] has as its system secreted cytokines TNFα, IL-6 and KC-GRO in BV-2 cells (mouse microglial cells). The experiment in a line: Secreted cytokines in lipopolysaccharide-stimulated mouse glial cell line. The format is cell-based. The following applies: LPS 250 ng/mL 5 hours, table does not say which cytokine. The method, boiled down: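 BV-2 cells seeded at 35,000/well were pretreated overnight with compound (10 μM to 4.6 nM final), then stimulated 5 h with 250 ng/mL E. coli O111:B4 LPS. Supernatant TNFα, IL-6 and KC-GRO were quantified by electrochemiluminescence against standard curves (pg/mL) to fit EC50. Cytotoxicity was checked by CellTiter-Glo ATP read-out.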

The test system of assay [4] is SW480 colon carcinoma cells. The experiment in a line: Cell viability assay (CellTiter-Glo). Type of assay: cell-based, human. The following applies: Homo sapiens; for EC50: 96 h, four days, CellTiter-Glo; for inhibition at 10 µM: read-out: percent inhibition at 10 μM (given for EC50 >10 μM), 10 μM.
The test system of assay [5] is LL29 cells (primary human fibroblasts derived from IPF patients), α-smooth muscle actin. The assay can be described thus: Inhibition of fibrotic process: TGF-β1-treated primary human fibroblasts, αSMA staining.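 As to all read-outs here: controls were TGF-β1-stimulated wells with DMSO vehicle as the positive reference and cells given DMSO alone as the negative reference.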 Type of assay: cell-based. The following applies: Homo sapiens, Fibroblast; for EC50: 96 h, TGF-β1 20 ng/mL, 4 days, % cells positive for αSMA; for inhibition at 10 µM: read-out: percent inhibition at 10 μM (given for EC50 >10 μM), TGF-β1, αSMA, 10 μM.
Procedure: Representative compounds were screened using primary human fibroblasts (derived from IPF patients) treated with TGF-β1 to determine their ability to inhibit the fibrotic process.
Human Fibroblast Cell Culture:
Each compound was dissolved in DMSO as a 10 mM stock and used to prepare compound source plates. […] LL29 cells were plated at 1,500 cells/well in 70 μL/well F12 medium supplemented with 1% Fetal Bovine Serum. […] Wells treated with TGF-β1 and containing DMSO were used as positive control, and cells with only DMSO were negative control. Cells were incubated at 37° C. and 5% CO2 for 4 days. Following incubation for 4 days, SYTOX green nucleic acid stain (Life Technologies [Thermo Fisher Scientific]) was added to the wells at a final concentration of 1 μM and incubated at room temperature for 30 min. Cells were then fixed using 4% formaldehyde (Electron Microscopy Sciences), washed 3 times with PBS followed by blocking and permeabilization using 3% Bovine Serum Albumin (BSA; Sigma) and 0.3% Triton X-100 (Sigma) in PBS.

For assay [6], the system named is pT212Tau in Dyrk1a- and MAPT-overexpressing HEK293T cells. The assay can be described thus: Tau phosphorylation at Threonine 212 (pT212Tau) sandwich ELISA in double transfected cells. The note with it: Homo sapiens, HEK-293T, read-out: Thr212 EC50 (μM).
Procedure: HEK293T cells (transfectable human embryonic kidney cells) were cultured in DMEM medium supplemented with 10% FBS and 1% penicillin/streptomycin.
HEK293T cells were transiently transfected to overexpress Dyrk1a and microtubule-associated protein Tau (MAPT) genes. Specifically, Dyrk1a and MAPT expression vectors were obtained from OriGene (10 μg of each, catalog numbers SC314641 and RC216166, respectively). […] HEK293T cells were seeded at 1.0×10^7 cells in 10 mL per T-75 flask. […] One T-75 flask was designated as a no-vector negative control for pT212Tau signal.
After 4-6 hours of incubation in transfection reagents, transiently double transfected HEK293T cells were dissociated by treatment with trypsin EDTA and seeded at 1.0×10^5 cells in 100 μL per well in 96-well plates. No-vector negative controls were seeded in separate 96-well plates to avoid the risk of the negative control cells picking up the overexpression during incubation.
96-well flat-bottom plates were coated with 100 μL per well anti-HT7 capture antibody (ThermoFisher, MN1000) diluted 1:300 in 1×PBS at 4° C. overnight, with shaking at 500 rpm.
Cells were then lysed with 100 μL 1×RIPA buffer supplemented with phosphatase and protease inhibitors (each diluted to a final 1×). […] V-bottom plates were centrifuged at 4000 rpm, 4° C., for 15 minutes, and 100 μL of lysate supernatant from each well was directly tested for pT212Tau signal by sandwich ELISA.
Assay [7] concerns the target recombinant DYRK1A kinase (Homo sapiens (Human), UniProt Q13627). The assay can be described thus: DYRK1A kinase assay (Ser/Thr 18 peptide Z-lyte, FRET).
The mark [8] stands for this setting: GSK3β kinase, head says EC50, method says IC50, ATP 46 μM.
Where [9] appears, read: DYRK1A kinase, head says EC50, method says IC50, ATP 30 μM.

Sequence of recombinant GSK3β kinase (P49841 whole entry): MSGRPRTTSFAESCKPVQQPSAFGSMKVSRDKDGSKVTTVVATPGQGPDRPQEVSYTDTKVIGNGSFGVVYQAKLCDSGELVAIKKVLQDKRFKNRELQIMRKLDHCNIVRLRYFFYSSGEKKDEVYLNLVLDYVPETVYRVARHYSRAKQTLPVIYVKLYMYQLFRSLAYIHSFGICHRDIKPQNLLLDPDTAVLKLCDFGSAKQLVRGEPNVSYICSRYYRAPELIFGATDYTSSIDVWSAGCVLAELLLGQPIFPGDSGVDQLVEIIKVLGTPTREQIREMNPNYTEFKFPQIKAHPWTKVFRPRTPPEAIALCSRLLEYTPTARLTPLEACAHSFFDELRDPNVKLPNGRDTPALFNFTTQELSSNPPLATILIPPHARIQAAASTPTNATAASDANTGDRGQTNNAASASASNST

Turning to `O=C(Nc1cc2cc(-c3cnccn3)ccc2cn1)[C@H]1CC[C@H](CN2CC(F)C2)CC1` [Compound 72, trans-4-((3-Fluoroazetidin-1-yl)methyl)-N-(6-(pyrazin-2-yl)isoquinolin-3-yl)cyclohexane-1-carboxamide], the EC50 is 1220 nM in assay [1]; 7700 nM in assay [2]; 1310 nM in assay [3]; greater than 10000 nM in assay [4]; 1830 nM in assay [5]; 0.628 µM in assay [6]. Moreover, in assay [7], the half-maximal effective concentration (EC50) was determined as 7 nM. Further, the inhibition at 10 µM in assay [4] was found to be 35.6%.

As to `CN1CCN(C[C@H]2CC[C@H](C(=O)Nc3cc4cc(-c5cnccn5)ccc4cn3)CC2)CC1` [Compound 73, trans-4-((4-Methylpiperazin-1-yl)methyl)-N-(6-(pyrazin-2-yl)isoquinolin-3-yl)cyclohexane-1-carboxamide], the EC50 in assay [1] was 828 nM; in assay [2], greater than 10000 nM; in assay [3] it was 694 nM; in assay [4], greater than 10000 nM; in assay [5], greater than 10000 nM; in assay [6], 0.024 µM. The EC50 in assay [7] was determined as 4 nM. For the same compound, the inhibition at 10 µM in assay [4] stood at 50.7%; in assay [5] it was 43.1%.

As for `CN1CCC(C(=O)Nc2cc3cc(-c4cnccn4)ccc3cn2)CC1` [Compound 75, 1-Methyl-N-(6-(pyrazin-2-yl)isoquinolin-3-yl)piperidine-4-carboxamide], the 50% effective concentration (EC50) in assay [1] is 1390 nM; in assay [2], greater than 10000 nM; in assay [3], 194 nM; in assay [4] it was greater than 10000 nM; in assay [5], 1370 nM; in assay [6] it was 0.089 µM. The EC50 in assay [7] was found to be 10 nM. The inhibition at 10 µM in assay [4] stood at 44.5%.

As for `O=C(Nc1cc2cc(-c3cnccn3)ccc2cn1)C1CCN(CCF)CC1` [Compound 77, 1-(2-Fluoroethyl)-N-(6-(pyrazin-2-yl)isoquinolin-3-yl)piperidine-4-carboxamide], the EC50 in assay [1] (setting [8]) was 1070 nM; in assay [2], greater than 10000 nM; in assay [3], 280 nM; in assay [4], greater than 10000 nM; in assay [5] it was 4760 nM; in assay [6], 0.062 µM. The 50% effective concentration (EC50) in assay [7] (setting [9]) came out at 11 nM. Moreover, the inhibition at 10 µM in assay [4] was 33.8%.

As to `CC(C)Nc1cncc(-c2ccc3cnc(NC(=O)C4CCN(C)CC4)cc3c2)n1` [Compound 88, N-(6-(6-(Isopropylamino)pyrazin-2-yl)isoquinolin-3-yl)-1-methylpiperidine-4-carboxamide], the EC50 was 26 nM in assay [1] (setting [8]); 129 nM in assay [2]; 1070 nM in assay [3]; 364 nM in assay [4]; greater than 10000 nM in assay [5]; less than 0.003 µM in assay [6]. Further, the EC50 in assay [7] (setting [9]) amounted to 1 nM. In assay [5], the inhibition at 10 µM worked out at 31.9%.

On to `Cc1cncc(-c2ccc3cnc(NC(=O)CN4CCOCC4)cc3c2)c1` [Compound 146, N-(6-(5-Methylpyridin-3-yl)isoquinolin-3-yl)-2-morpholinoacetamide], for which the EC50 in assay [1] (setting [8]) was 623 nM; in assay [2], 7800 nM; in assay [3], 201 nM; in assay [4] it was greater than 10000 nM; in assay [5], greater than 10000 nM; in assay [6], 0.054 µM. For the same compound, the EC50 in assay [7] (setting [9]) amounted to 9 nM. The inhibition at 10 µM is 23.1% in assay [4] and 23.8% in assay [5].

For the origin of these results see patent US10653688B2, “6-(6-membered heteroaryl and aryl)isoquinolin-3-yl carboxamides and preparation and use thereof” (Samumed, LLC, priority 2017, dated 2020).
